Tests used:
[1] = test system: K-Ras^G12D MEFs; experiment: Lysosomal degradation of DQ-BSA (fluorescence dequenching) in K-Ras^G12D MEFs; assay type: cell-based, mouse
Protocol: For live imaging, medium was supplemented with 0.3 mg/ml DQ Green BSA. 1 h prior to imaging, 50 nM LysoTracker Red and 0.2 μg/ml Hoechst were added. Cells were imaged either immediately after addition of DQ-BSA and torin 1, or after 5-6 h incubation using a Zeiss LSM 5 LIVE.
To characterize how cells derive leucine from extracellular proteins, cellular albumin uptake was investigated using constitutively fluorescent albumin and intracellular albumin proteolysis using a self-quenched albumin that emits fluorescence upon degradation (DQ-BSA) (Reis et al., 1998). […] It was then determined whether lysosomal albumin degradation was required to support growth during leucine starvation. […] Ras GTPases can promote cellular uptake of macromolecules through macropinocytosis (Bar-Sagi and Feramisco, 1986). […] To investigate whether this endocytic pathway contributed to albumin-dependent growth, cells were treated with the Na^+/H^+ exchange inhibitor EIPA, which blocks macropinocytosis but not other endocytic pathways (West et al., 1989).
To distinguish these possibilities, it was first tested whether mTORC1 inhibition increased internalization of extracellular macromolecules. […] It was next examined whether mTORC1 inhibition affected lysosomal degradation of internalized proteins.

[2] = test system: mTORC1; experiment: mTORC1 re-activation after 1 h EAA starvation, Western blotting against phosphorylated S6K1; assay type: cell-based, mouse; conditions: wild type and K-Ras^G12D MEFs; EAA-free medium with 1-3% albumin; 500 nM torin 1 added at onset of EAA starvation
Protocol: Cells were rinsed with ice-cold PBS and detached from culture plates by incubation with ice-cold trypsin (0.05%). Trypsin was inactivated with ice-cold serum, cells pelleted and rinsed with ice cold PBS. Cells were lysed in ice-cold lysis buffer [50 mM HEPES, pH 7.4, 40 mM […], 2 mM EDTA, 1 mM Na Orthovandanate, 50 mM NaF, 10 mM Na Pyrophosphate, 10 mM Na Glycerophosphate, 1% Triton X-100, 1×Halt protease and phosphatase inhibitor cocktails (Thermo Scientific)] for 15 min, and soluble lysate fractions isolated by centrifugation at 16,000 g for 10 min. Protein concentrations were determined with the Pierce BCA Protein Assay (Thermo Scientific) and equal amounts of proteins analyzed by SDS gel electrophoresis and Western blotting following standard protocols.
Cell culture experiments were performed at 37° C. and 5% CO2 in DMEM/F12 with 10% dialyzed FBS (molecular weight cut-off 10,000; Gemini Biosystems), 100 U/mL penicillin, 100 μg/mL streptomycin, 5 mM glucose and 2 mM glutamine. For proliferation assays, MEFs were plated in complete medium, 5 h later briefly rinsed and then cultured in starvation medium as indicated. For EAA titration experiments, EAAs were supplemented at indicated percentages of 1×MEM amino acid solution (M5550, Sigma). Cancer cell lines were cultured in complete medium for 1 day prior to starvation. Numbers of adherent cells, which are >95% viable as assessed by Trypan Blue exclusion were determined using a Multisizer 4 Coulter Counter (Beckman). For mTOR activation and localization experiments, cells were rinsed and then incubated in EAA starvation medium (DMEM/F12 lacking all amino acids except glutamine) for 1 h, and subsequently placed in medium supplemented with EAAs (1×MEM amino acid solution), albumin (3%, if not stated otherwise) or fresh EAA-free starvation medium for indicated periods of time.
Cells can sense EAAs through the mTORC1 pathway, which integrates amino acid levels with inputs from growth factor signaling to promote cell growth (Ma and Blenis, 2009; Shimobayashi and Hall, 2014). When cells are placed in EAA-free medium, the ability of mTORC1 to phosphorylate downstream targets is repressed. To test if catabolism of extracellularly provided proteins could restore mTORC1 activity in the absence of EAAs, mTORC1 was inactivated by subjecting MEFs to 1 h EAA starvation. Fresh medium containing EAAs or different concentrations of albumin was then added and mTORC1 re-activation assessed by Western blotting against phosphorylated S6K1.

## CCC(=O)N1CCN(c2ccc(-n3c(=O)ccc4cnc5ccc(-c6cnc7ccccc7c6)cc5c43)cc2C(F)(F)F)CC1 [torin 1]
[1]; 250 nM torin 1, 6 h DQ-BSA uptake, versus either manipulation alone
  DQ-BSA proteolysis, torin 1 combined with constitutive K-Ras activation: almost four times more than either manipulation alone
[1]; 250 nM torin 1, followed over time
  fluorescence dequenching of DQ-BSA: dramatic increase
[1]; pre-treating with 250 nM torin 1 for 6 h or 16 h
  rate of DQ-BSA degradation after torin 1 pre-treatment: did not increase the rate of DQ-BSA degradation
[2]
  albumin-induced S6K1 phosphorylation: completely suppressed

Source: patent publication US20210346354A1, “MACROPINOCYTOSIS IN CANCER” (Memorial Sloan-Kettering Cancer Center, priority 2015, published 2021)
